Like-named read-outs stand apart in the source and are kept apart here.

One assay concerns the target T1, centrin1 (Homo sapiens, UniProt Q12798).
T1 sequence (Q12798 1-172): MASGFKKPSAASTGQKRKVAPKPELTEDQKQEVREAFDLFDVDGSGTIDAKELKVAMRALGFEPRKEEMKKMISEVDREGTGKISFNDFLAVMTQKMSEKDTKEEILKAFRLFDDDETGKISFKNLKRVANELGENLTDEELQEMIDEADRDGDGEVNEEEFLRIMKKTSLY
Briefly: Fluorescence anisotropy competition: displacement of F-Sfi1 from centrin1 by CaM inhibitors. It is filed as binding. On the procedure:
The Sfi1 peptide was derived from 670-REVAA-RESQH-NRQLL-RGALR-RWK-692 of human Sfi1 and the fluorescein was attached to the native C-terminal Lys. Sfi1 peptide titration was performed in a buffer composed of 10 mM HEPES pH 7.4, 100 mM CaCl2, and 0.005% v/v Tween 20. For binding, to a 2-fold dilution series of centrin1, 100 nM of Sfi1 peptide was added, and the reaction mix was incubated for 45 min at RT before anisotropy measurements. For measuring the IC50 of inhibitors to centrin1, to the 3-fold dilution series of inhibitors in the assay buffer, a complex of 100 nM fluorescein labelled Sfi1 peptide and 250 nM His-centrin1 was added in 20 µL volume in a 384-well plate. The fluorescence anisotropy was measured after overnight incubation at RT.
The fluorescence anisotropy was measured on a Clariostar (BMG Labtech, Ortenberg, Germany) plate reader using the fluorescence intensity signal recorded from vertical (Iv)- and horizontal (Ih)-polarised light using a fluorescence polarisation module (λexcitation 482 ± 8 nm and λemission 530 ± 20 nm). Fluorescence anisotropy was calculated from the measured fluorescence intensities according to r=Iv−GλIh/Iv+2GλIh, where r is the fluorescence anisotropy value and Iv and Ih are the fluorescence emission intensities detected with vertical and horizontal polarisation, respectively. The instrument specific correction factor G(λ) was set to 1 and not determined further. A quadratic equation as described by others was defined in Prism (GraphPad, version 9.5.1, La Jolla, CA, USA) and was used to determine the KD value of the fluorescein tagged peptides to target protein. y=Af+Ab−Af∗(Lt+KD+x−Lt+KD+x^2−4∗Lt∗x/2Lt
The IC50 value of inhibitors was determined by plotting the log concentration of inhibitor against fluorescence anisotropy values and fitting the data to log inhibitor vs. response—variable slope (four parameters) equation in Prism (GraphPad).
Background: Fluorescence polarisation rises when a labelled molecule tumbles more slowly, as on binding a larger partner.

For a further assay, the target named is CaM. As to conditions: F-PMCA peptide as probe; read-out: CaM Kd (References); cited from earlier work.
A further assay concerns the target T2, K-RasG12V/centrin1 (Homo sapiens, UniProt Q12798).
T2 construct: expressed in transfected cells; host or cells: HEK293-ebna
T2 sequence (Q12798 1-172): T1 sequence (Q12798 1-172)
As to the kind of experiment: Cellular BRET Rluc8-K-RasG12V/GFP2-centrin1 in HEK293-ebna cells. It is filed as cell-based. As to conditions: for effect on BRETtop of K-RasG12V/centrin1: ophiobolin A 2.5 µM, calmidazolium 10 µM, calmirasone1 20 µM, 24 h, n = 3. For orientation: In BRET a luciferase serves as donor, and the signal depends on an acceptor being close.

The test system of a further assay is K-Ras/CaM. As to the kind of experiment: Cellular BRET donor saturation titration Rluc8-K-Ras/GFP2-CaM in HEK293-ebna cells. It is filed as cell-based, human. Conditions: 10 µM mevastatin, 24 h. On the procedure: (§1) The detailed method of our BRET assay can be found in [9, 43]. Briefly, ~200,000 HEK293-ebna cells were seeded per well of a 12-well plate (cat. no. 665180, Greiner Bio-One, Vivoorde, Belgium) and grown in 1 mL of complete DMEM. The next day, ~1 µg of BRET sensor plasmids was transfected using 2.5 µL of jetPRIME. The concentration of donor plasmid was 25 ng, and that of the acceptor plasmid had increased from 25 ng to 1000 ng for titration curves. Cells were treated with inhibitors or vehicle control (DMSO at 0.2% v/v) 24 h after transfection. Cells were collected the following day in PBS and plated in white, flat bottom 96-well plates (cat. no. 236108, Nunc, Thermo Fisher Scientific). BRET measurements were performed on a Clariostar plate reader (BMG Labtech). Three channels were read. The first channel was First, GFP2-fluorescence (λexcitation 405 ± 10 nm and λemission 515 ± 10 nm), which is directly proportional to the acceptor concentration (RFU). Second, the channel was read after adding coelenterazine 400a (cat. no. C-320, GoldBio, Saint Louis, MO, USA; at 10 μM final concentration) BRET-channel (515 ± 15 nm) readings in well-mode, and then again (third) with the luminescence channel (410 ± 40 nm), and recordings were made. Signals corresponded to the BRET signal and donor (RLU) signals. […] The relative expression is calculated as the ratio of RFU/RLU and denoted as [Acceptor]/[Donor]. […]

In the next assay the test system is K-Ras/centrin1. As to the kind of experiment: Cellular BRET donor saturation titration Rluc8-K-Ras/GFP2-centrin1 in HEK293-ebna cells. It is filed as cell-based, human. Conditions: 10 µM mevastatin, 24 h. On the procedure: as §1
The subject of another assay is CTK/CaM. Briefly: Cellular BRET donor saturation titration Rluc8-CTK/GFP2-CaM in HEK293-ebna cells. It is filed as cell-based, human. As to conditions: 10 µM mevastatin, 24 h. On the procedure:
as §1

The test system of another assay is CTK/centrin1. As to the kind of experiment: Cellular BRET donor saturation titration Rluc8-CTK/GFP2-centrin1 in HEK293-ebna cells. It is filed as cell-based, human. As to conditions: 10 µM mevastatin, 24 h. On the procedure: as §1
Setting [1] is: 100 nM F-Sfi1 and 250 nM His-centrin1, overnight at RT, Kd converted from IC50, read-out: Centrin1 Mean Kd (Repeat Values).

Procedure for K-RasG12V/centrin1: Briefly, ~200,000 HEK293-ebna cells were seeded per well of a 12-well plate (cat. no. 665180, Greiner Bio-One, Vivoorde, Belgium) and grown in 1 mL of complete DMEM. The next day, ~1 µg of BRET sensor plasmids was transfected using 2.5 µL of jetPRIME. The concentration of donor plasmid was 25 ng, and that of the acceptor plasmid had increased from 25 ng to 1000 ng for titration curves. Cells were treated with inhibitors or vehicle control (DMSO at 0.2% v/v) 24 h after transfection. Cells were collected the following day in PBS and plated in white, flat bottom 96-well plates (cat. no. 236108, Nunc, Thermo Fisher Scientific). BRET measurements were performed on a Clariostar plate reader (BMG Labtech). Three channels were read. The first channel was First, GFP2-fluorescence (λexcitation 405 ± 10 nm and λemission 515 ± 10 nm), which is directly proportional to the acceptor concentration (RFU). Second, the channel was read after adding coelenterazine 400a (cat. no. C-320, GoldBio, Saint Louis, MO, USA; at 10 μM final concentration) BRET-channel (515 ± 15 nm) readings in well-mode, and then again (third) with the luminescence channel (410 ± 40 nm), and recordings were made. Signals corresponded to the BRET signal and donor (RLU) signals. The ratio of BRET signal/RLU gave the raw BRET ratio. The final BRET ratio (BRET in plots) was obtained by subtracting the raw BRET ratio from the background raw BRET ratio of cells expressing only the donor. The relative expression is calculated as the ratio of RFU/RLU and denoted as [Acceptor]/[Donor]. […]
For dose response analysis of inhibitors, on day one, ~200,000 HEK293-ebna cells were seeded per well of a 12-well plate (cat. No. 665180, Greiner Bio-One, Vivoorde, Belgium) and grown in complete DMEM. […] The log inhibitor vs BRET ratio was plotted, and the data were fitted by a log (inhibitor) vs. response variable slope (four parameters) equation of Prism, and the IC50 values were calculated.

As usually defined, the Kd is the constant that tells how readily two partners part at equilibrium. Take `NCCCCCCNS(=O)(=O)c1cccc2c(Cl)cccc12` [W-7]: the equilibrium dissociation constant (Kd) at centrin1 (setting [1]) is 18.2 µM; at CaM it was 1.47 µM.

Take `Clc1ccc(C(c2ccc(Cl)cc2)n2cc[n+](CC(OCc3ccc(Cl)cc3Cl)c3ccc(Cl)cc3Cl)c2)cc1` (centres unmarked) [calmidazolium, calmidazolium chloride]: the Kd is 1.6 µM at centrin1 (setting [1]) and 0.0135 µM on CaM. Also, the IC50 at K-RasG12V/centrin1 (HEK293-ebna, donor/acceptor plasmid ratio 1/19, 24 h treatment, n = 2, read-out: IC50, inhibition of K-RasG12V/centrin1 BRET interaction) was 10.44 ± 0.05 µM. In addition, the “effect on BRETtop of K-RasG12V/centrin1” value on K-RasG12V/centrin1 is “lowered”.

On to `CC[C@H](C)C(=O)O[C@H]1CCC=C2C=C[C@H](C)[C@H](CC[C@@H]3C[C@@H](O)CC(=O)O3)[C@H]21` [mevastatin], for which, in the assay on K-Ras/CaM, the “effect on BRET-levels of K-Ras with CaM” value is given as “did not significantly affect”. The “BRETtop (K-Ras + CaM)” value in the assay with K-Ras/CaM (n = 3) stood at 0.097 ± 0.005. Besides, the “effect on BRET-levels of K-Ras with centrin1” value with K-Ras/centrin1 is “did not significantly affect”. In the assay on K-Ras/centrin1 (n = 3), the “BRETtop (K-Ras + centrin1)” value is 0.078 ± 0.005. The “effect on BRET of CTK with CaM” value with CTK/CaM was “did not decrease”. Also, in the assay with CTK/CaM (n = 3), the “BRETtop (CTK + CaM)” value is reported as 0.063 ± 0.004. In the assay with CTK/centrin1, the “effect on BRET of CTK with centrin1” value is reported as “did not decrease”. Moreover, the “BRETtop (CTK + centrin1)” value with CTK/centrin1 (n = 3) amounted to 0.061 ± 0.003.

Take `CC(C)=C[C@H]1C[C@H](C)[C@]2(CC[C@]3(C)C[C@H]4[C@H](C(=O)C[C@@]4(C)O)/C(C=O)=C\C[C@H]32)O1` [ophiobolin A]: the equilibrium dissociation constant (Kd) on centrin1 is 49 µM; at CaM, 3.5 µM. Moreover, the “effect on BRETtop of K-RasG12V/centrin1” value at K-RasG12V/centrin1 is given as “lowered”.
